Experimental data published in patent publication US20220184082A1, “CANCER THERAPY USING 3,5-DISUBSTITUTED BENZENE ALKYNYL COMPOUND AND PEMBROLIZUMAB” (TAIHO PHARMACEUTICAL CO., LTD., priority 2019, published 2022).

B1: vofatamab: an anti-FGFR3 antibody (antibody, chains of the INN, looked up, V domains shown)
VH: EVQLVESGGGLVQPGGSLRLSCAASGFTFTSTGISWVRQAPGKGLEWVGRIYPTSGSTNYADSVKGRFTISADTSKNTAYLQMNSLRAEDTAVYYCARTYGIYDLYVDYTEYVMDYWGQGTLVTVSS
VL: DIQMTQSPSSLSASVGDRVTITCRASQDVDTSLAWYKQKPGKAPKLLIYSASFLYSGVPSRFSGSGSGTDFTLTISSLQPEDFATYYCQQSTGHPQTFGQGTKVEIK

How the values were obtained:
[1] = test system: mouse breast cancer cell line 4T1; conditions: 4T1-implanted BALB/cAJcl mouse; oral daily 14 days, 15 and 30 mg/kg/day; Day 15
Method: On the day following the final administration (Day 15), lymphocyte fractions were isolated from the tumor, spleen, and peripheral blood, and myeloid-derived suppressor cells (MDSCs) (CD11b^+/Gr-1^+ cells), CD4-positive T cells, and CD8-positive T cells were measured using a cell sorter.

[2] = test system: urothelial cancer; conditions: cited from earlier work

Molecule | CD4-positive T cells in the peripheral blood lymphocyte fractions compared with the control [1] | CD8-positive T cells in the peripheral blood lymphocyte fractions compared with the control [1] | CD8-positive T cells in the spleen lymphocyte fractions compared with the control [1] | MDSCs in the peripheral blood lymphocyte fractions compared with the control [1] | Response by combined use with pembrolizumab ([2]; urothelial cancer patients without FGFR genetic aberration, combined with pembrolizumab) | Sensitivity state of the cancer to immune checkpoint inhibitors ([2]; urothelial cancer patients)
C=CC(=O)N1CC[C@H](n2nc(C#Cc3cc(OC)cc(OC)c3)c3c(N)ncnc32)C1 [compound 1, (S)-1-(3-(4-amino-3-((3,5-dimethoxyphenyl)ethynyl)-1H-pyrazolo[3,4-d]pyrimidin-1-yl)pyrrolidin-1-yl)prop-2-en-1-one] | tended to increase in a dose-dependent manner | tended to increase in a dose-dependent manner | tended to increase in a dose-dependent manner | tended to decrease in a dose-dependent manner |  | 
B1 |  |  |  |  | response by combined use with pembrolizumab is observed | change from a “cold” state (low sensitivity to immune checkpoint inhibitors) to a “hot” state (high sensitivity to immune checkpoint inhibitors)
